The supplement of paper PMC10307832

Tests used:
Assay in all cases: relative viability (nuclei count vs DMSO), 5 days (fraction); higher = more cells survive
[1] = compound: CC1=CN2C(=O)C=C(N=C2C(=C1)C(C)NC3=CC=CC=C3)N4CCOCC4 [TGX 221] + O=C(c1cc(Cc2n[nH]c(=O)c3ccccc23)ccc1F)N1CCN(C(=O)C2CC2)CC1 [Olaparib] (partner 8 µM)
Procedure, shortened: (§1)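 Relative viability divides the nuclei count in treated wells by that in vehicle wells. Lung cancer cell lines were seeded in 1536-well plates, dosed by pin tool the next day, and fixed and stained after 5 days in one step with final 0.05% Triton X-100, 1% formaldehyde and 1 ug/ml Hoechst. Dosing was a single drug or a fixed anchor-drug dose plus five library-drug doses (not always all listed) in √10 steps, and values are medians of duplicate plates imaged at 4×.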

[2] = compound: CC1=CN2C(=O)C=C(N=C2C(=C1)C(C)NC3=CC=CC=C3)N4CCOCC4 [TGX 221] + CS(=O)(=O)CCNCc1ccc(-c2ccc3ncnc(Nc4ccc(OCc5cccc(F)c5)c(Cl)c4)c3c2)o1 [Lapatinib] (partner 2 µM)
Procedure, shortened: as §1

[3] = compound: C1=CC=C(C(=C1)C2=CC=C(C=C2)C3=CSC4=C3C(=C(C(=O)N4)C#N)O)O + CS(=O)(=O)N1CCN(Cc2cc3nc(-c4cccc5[nH]ncc45)nc(N4CCOCC4)c3s2)CC1 [Pictilisib] (partner 1 µM)
Procedure, shortened: as §1

[4] = compound: C1=CC=C(C(=C1)C2=CC=C(C=C2)C3=CSC4=C3C(=C(C(=O)N4)C#N)O)O + CC(=O)c1c(C)c2cnc(Nc3ccc(N4CCNCC4)cn3)nc2n(C2CCCC2)c1=O [Palbociclib] (partner 0.5 µM)
Procedure, shortened: as §1

Cell Line	relative viability ([1]; first compound 0.08 µM)	relative viability ([1]; first compound 0.253 µM)	relative viability ([1]; first compound 0.8 µM)	relative viability ([1]; first compound 2.53 µM)	relative viability ([1]; first compound 8 µM)	relative viability ([2]; first compound 0.08 µM)	relative viability ([2]; first compound 0.253 µM)	relative viability ([2]; first compound 0.8 µM)	relative viability ([2]; first compound 2.53 µM)	relative viability ([2]; first compound 8 µM)	relative viability ([3]; first compound 0.08 µM)	relative viability ([3]; first compound 0.253 µM)	relative viability ([3]; first compound 0.8 µM)	relative viability ([3]; first compound 2.53 µM)	relative viability ([3]; first compound 8 µM)	relative viability ([4]; first compound 0.08 µM)	relative viability ([4]; first compound 0.253 µM)	relative viability ([4]; first compound 0.8 µM)	relative viability ([4]; first compound 2.53 µM)	relative viability ([4]; first compound 8 µM)
NCI-H322M	0.699	0.701	0.876	0.716	0.681	0.567	0.6	0.547	0.562	0.67	0.511	0.495	0.494	0.477	0.499	0.461	0.468	0.467	0.483	0.49
NCI-H358	0.626	0.565	0.705	0.545	0.582	0.477	0.458	0.472	0.42	0.442	0.415	0.344	0.329	0.342	0.414	0.13	0.17	0.124	0.135	0.123
NCI-H460	0.4	0.438	0.389	0.405	0.38	0.709	0.795	0.983	0.969	0.966	0.339	0.325	0.367	0.319	0.333	0.15	0.149	0.15	0.101	0.158
NCI-H520	0.329	0.256	0.262	0.22	0.247	0.724	0.562	0.824	0.671	0.516	0.185	0.277	0.323	0.319	0.295	0.235	0.212	0.223	0.226	0.206
NCI-H647	0.443	0.385	0.553	0.403	0.447	0.95	0.869	0.955	0.746	0.61	0.226	0.449	0.515	0.377	0.389	–	0.387	0.392	0.346	0.22
NCI-H650	0.409	0.359	0.371	0.348	0.334	1	0.98	0.706	0.908	0.76	0.978	0.975	0.841	0.86	0.91	0.305	0.357	0.329	0.273	0.344
NCI-H661	0.743	0.764	0.765	0.748	0.76	0.486	0.376	0.439	0.382	0.394	0.331	0.425	0.333	0.39	0.349	0.426	0.419	0.392	0.394	0.391
NCI-H727	0.681	0.732	0.545	0.679	0.745	0.751	0.731	0.794	0.832	0.919	0.376	0.407	0.427	0.353	0.308	0.711	0.703	0.571	0.666	0.591
